Results published in publication PMC4800991 (Molecular pharmaceutics, 2015).

Assays:
Assay type in all cases: cell-based
[1] = biological target: T1, human thiamine transporter 2 (hTHTR-2) (Homo sapiens, UniProt Q9BZV2); experiment: inhibition of [3H]thiamine and […]metformin uptake in HEK-hTHTR-2 cells at […]
T1 sequence (Q9BZV2 1-496): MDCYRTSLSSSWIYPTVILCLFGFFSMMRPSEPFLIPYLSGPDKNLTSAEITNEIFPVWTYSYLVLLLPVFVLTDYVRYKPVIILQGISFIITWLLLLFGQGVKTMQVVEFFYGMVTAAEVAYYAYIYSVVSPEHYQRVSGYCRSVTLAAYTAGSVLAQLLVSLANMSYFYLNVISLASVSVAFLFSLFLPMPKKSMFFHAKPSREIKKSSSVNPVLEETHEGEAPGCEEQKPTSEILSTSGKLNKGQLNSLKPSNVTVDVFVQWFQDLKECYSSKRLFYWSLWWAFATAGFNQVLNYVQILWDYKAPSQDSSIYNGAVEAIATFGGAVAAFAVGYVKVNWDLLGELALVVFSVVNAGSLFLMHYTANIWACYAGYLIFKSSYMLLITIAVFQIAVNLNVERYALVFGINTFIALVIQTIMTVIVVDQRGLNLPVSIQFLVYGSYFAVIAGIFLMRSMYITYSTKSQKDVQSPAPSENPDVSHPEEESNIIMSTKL

[2] = biological target: T1, human thiamine transporter 2 (hTHTR-2); experiment: saturable [3H]thiamine uptake
[3] = biological target: T1, human thiamine transporter 2 (hTHTR-2); experiment: [3H]MPP+ uptake in HEK-hTHTR-2 cells with and without fedratinib
[4] = biological target: T1, human thiamine transporter 2 (hTHTR-2); experiment: inhibition of [3H]thiamine uptake in HEK-hTHTR-2 cells
[5] = biological target: T1, human thiamine transporter 2 (hTHTR-2); experiment: saturable […]metformin uptake

Which “inhibition of [3H]thiamine and [14C]metformin uptake in HEK-hTHTR-2 cells at 200” value [1] does the source give for `Cc1ncc(C[n+]2cccc(CCO)c2C)c(N)n1` [pyrithiamine] here?
The value was “antithiamine analogues (amprolium and pyrithiamine) and prescription drugs (chloroquine, verapamil, and famotidine) were shown to be inhibitors”.

For `Cc1ncc(C[n+]2csc(CCO)c2C)c(N)n1` [thiamine], which IC50 [2] is on record?
The IC50 was 1.03 ± 0.12 µM.

For `C[n+]1ccc(-c2ccccc2)cc1` [MPP+, 1-methyl-4-phenylpyridinium], which “[3H]MPP+ uptake in HEK-hTHTR-2 cells with and without fedratinib” value [3] is on record?
The value was 1-methyl-4-phenylpyridinium (MPP^+) and the histamine H2-receptor antagonist famotidine were substrates of hTHTR-2.

Which IC50 [4] does the source give for `[H]/N=C(/N)N/C(=N/[H])NCCc1ccccc1` [phenformin] here?
The IC50 was 244 ± 28.4 µM.

How did the IC50 [5] turn out when `CN(C)C(=N)N=C(N)N` [metformin, 1,1-dimethylbiguanide] was run?
Its IC50 is 680 ± 140 µM.
